Data reported in patent US8901105B2, “Prodrug derivatives of (E)-N-methyl-N-((3-M ethylbenzofuran-2-yl)methyl)-3-(7-oxo-5,6,7,8-tetrahydro-1,8-naphthyridin-3-yl)acrylamide” (Affinium Pharmaceuticals, Inc., priority 2012, dated 2014).
≈ marks a conversion by molar mass, not a printed value. Counter-ions that a name gives are not always drawn. Like-named read-outs stand apart in the source and are kept apart here. Blank lines part the entries; values can stand above or below the molecule they belong to.

Columns and labels:
[1] = XRPD crystal form after storage; assay type: physicochemical; settings: 4 weeks storage
Method: (§1) Various compounds disclosed herein have been placed on long-term solid-state stability protocol. The compounds were stored in glass vials closed with PTFE lined caps at 30° C./65% RH, 40° C./75% RH, 50° C. and 60° C. (ambient humidity). The results of the study after 4 weeks are shown in Table B1 and after 3 months in Table B2. Appearance and purity analysis were conducted using HPLC and XPRD. The HPLC analyses were conducted using standard equipment such as a Agilent HP1100 HPLC (Station ID: LZPES HPLC 04) with YMC-Pack ODS-AQ sub 3 μm, 150×4.6 mm Samples were prepared for XRPD by sprinkling ˜20 mg onto a Si wafer zero background plate and pressing the material flat to ensure the surface is smooth and level. The samples were analyzed according the equipment parameters below.

[2] = Photostability of solid salts; assay type: physicochemical
[3] = Aqueous solubility of salts at 25° C.; assay type: physicochemical; settings: for solubility: thermodynamic from solid; for Comments (behaviour in solubility experiment): disodium salt
[4] = Solid-state stability (HPLC % area after storage); assay type: physicochemical; settings: for Solid-state stability % Area: 4 weeks; for chemical stability: over 1 month at 30° C./65% RH, closed vials, light protected
Method: as §1, with “mm” for “mm Samples were prepared for XRPD by sprinkling ˜20 mg onto a Si wafer zero background plate and pressing the material flat to ensure the surface is smooth and level. The samples were analyzed according the equipment parameters below.”

Streptococcus pneumoniae = experiment: Broth microdilution MIC; assay type: cell-based; settings: ATCC49619
Method: (§2) Bacterial Isolates. Organisms tested in this study are listed in Table P. Clinical isolates consisted of 5 Staphylococcus aureus (MSSA), 3 Staphylococcus aureus (HA-MRSA), 2 Staphylococcus aureus (CA-MRSA), 2 Enterococcus faecalis (VSE), 2 Streptococcus pyogenes, and 2 Escherichia coli (susceptible to most antibiotics). S. aureus ATCC 29213, E. faecalis ATCC 29212, S. pneumoniae ATCC 49619, and E. coli ATCC 25922 were tested for the purposes of quality control.
(§3) Minimal Inhibitory Concentrations (MIC) values against the selected isolates were determined using the reference broth microdilution method according to the Clinical Laboratory Standards Institute (CLSI) guidelines.
(§4) The MIC was read and recorded as the lowest concentration of drug that inhibited visible growth of the organism.

Enterococcus faecalis = experiment: Broth microdilution MIC; assay type: cell-based
Method: as §2, §3, §4

Staphylococcus aureus = experiment: Broth microdilution MIC; assay type: cell-based; settings: Staphylococcus aureus
Method: as §2, §3, §4

Streptococcus pyogenes = experiment: Broth microdilution MIC; assay type: cell-based
Method: as §2, §3, §4

Escherichia coli = experiment: Broth microdilution MIC; assay type: cell-based
Method: as §2, §3, §4

Structure (SMILES): Cc1c(CN(C)C(=O)/C=C/c2cnc3c(c2)CCC(=O)N3)oc2ccccc12 [Compound IV, (E)-N-methyl-N-((3-methylbenzofuran-2-yl)methyl)-3-(7-oxo-5,6,7,8-tetrahydro-1,8-naphthyridin-3-yl)acrylamide, reference compound]
solubility ([3]; water, 25 °C, water, water, 25° C., mg free acid equivalent/mL, read-out: Solubility in Water): < 1 µg/mL

Structure (SMILES): Cc1c(CN(C)C(=O)/C=C/c2cnc3c(c2)CCC(=O)N3COP2(=O)[O][Ca][O]2)oc2ccccc12 [Compound 13, (E)-6-[(N-methyl-((3-methylbenzofuran-2-yl)methyl)amino)-3-oxoprop-1-en-1-yl)-2-oxo-3,4-dihydro-1,8-naphthyridin-1(2H)-yl]methylphosphate calcium salt]
solubility ([3]; water, 25° C., mg free acid equivalent/mL, read-out: Solubility in Water): < 100 µg/mL

Structure (SMILES): CN[C@H](CC(C)C)C(=O)N[C@H]1C(=O)N[C@@H](CC(N)=O)C(=O)N[C@H]2C(=O)N[C@H]3C(=O)N[C@H](C(=O)N[C@H](C(=O)O)c4cc(O)cc(O)c4-c4cc3ccc4O)[C@H](O)c3ccc(c(Cl)c3)Oc3cc2cc(c3O[C@@H]2O[C@H](CO)[C@@H](O)[C@H](O)[C@H]2O[C@H]2C[C@](C)(N)[C@H](O)[C@H](C)O2)Oc2ccc(cc2Cl)[C@H]1O [Vancomycin]
MIC (Streptococcus pneumoniae): 0.12 µg/mL (≈ 0.0828 µM)
MIC (Enterococcus faecalis; ATCC29212, E. faecalis ATCC 29212): 1 µg/mL (≈ 0.69 µM)
MIC (Enterococcus faecalis; E. faecalis 4158, VSE): > 64 µg/mL
MIC (Enterococcus faecalis; E. faecalis 4212, VSE): 16 µg/mL (≈ 11 µM)
MIC (Staphylococcus aureus; ATCC29213, S. aureus ATCC 29213): 0.5 µg/mL (≈ 0.345 µM)
MIC (Staphylococcus aureus; MRSA, S. aureus 3083, HA-MRSA): 0.5 µg/mL (≈ 0.345 µM)
MIC (Staphylococcus aureus; MRSA, S. aureus 3086, HA-MRSA): 1 µg/mL (≈ 0.69 µM)
MIC (Staphylococcus aureus; MRSA, S. aureus 3265, HA-MRSA): 0.5 µg/mL (≈ 0.345 µM)
MIC (Staphylococcus aureus; MSSA, S. aureus 3104): 0.5 µg/mL (≈ 0.345 µM)
MIC (Staphylococcus aureus; MSSA, S. aureus 3107): 0.5 µg/mL (≈ 0.345 µM)
MIC (Staphylococcus aureus; MSSA, S. aureus 3245): 0.5 µg/mL (≈ 0.345 µM)
MIC (Staphylococcus aureus; MSSA, S. aureus 3250): 0.5 µg/mL (≈ 0.345 µM)
MIC (Staphylococcus aureus; MSSA, S. aureus 3856): 1 µg/mL (≈ 0.69 µM)
MIC (Staphylococcus aureus; S. aureus 2168, CAMRSA): 1 µg/mL (≈ 0.69 µM)
MIC (Staphylococcus aureus; S. aureus 2294, CAMRSA): 1 µg/mL (≈ 0.69 µM)
MIC (Streptococcus pyogenes; S. pyogenes 6528): 0.25 µg/mL (≈ 0.173 µM)
MIC (Streptococcus pyogenes; Streptococcus pyogenes): 0.25 µg/mL (≈ 0.173 µM)
MIC (Escherichia coli; E. coli 5255): >64 µg/mL
MIC (Escherichia coli; Escherichia coli): > 64 µg/mL
MIC (Escherichia coli; Escherichia coli, ATCC25922): > 64 µg/mL

More lines, now with the values ahead:

change in XRPD [1]: no change
Control % Area (Table C) ([2]; control sample at ambient lab conditions protected from light): 96.4 % Area
Photo-stability % Area ([2]; exposed to 60% of ICH minimum): 55.9 % Area
solubility ([3]; aqueous buffer, pH 6.6, aqueous buffer, originally amorphous, crystallized within 7 days in aqueous buffer, pH 6.6-7.1, read-out: solubility after crystallization in aqueous buffer): < 5000 µg/mL
Comments (behaviour in solubility experiment) ([3]; water, 25° C.): Forms gels
Comments (behaviour in solubility experiment) ([3]; water, 25° C., listed as bis-sodium): formed unwieldy gels
Solid-state stability % Area ([4]; 30° C./65% RH): 96.3 % Area
Solid-state stability % Area ([4]; 40° C./75% RH): 84.4 % Area
Solid-state stability % Area ([4]; 50° C./ambient humidity): 86.8 % Area
Solid-state stability % Area ([4]; 60° C./ambient humidity): 85.9 % Area
Solid-state stability % Area ([4]; Control (ambient lab conditions protected from light)): 96.4 % Area
chemical stability [4]: chemically stable
Structure (SMILES): Cc1c(CN(C)C(=O)/C=C/c2cnc3c(c2)CCC(=O)N3COP(=O)([O-])[O-])oc2ccccc12.[Na+].[Na+] [Compound 9]

change in XRPD [1]: some changes
content after storage (degradation) ([4]; 4 weeks at 40/75): ~65%
chemical stability ([4]; 40° C./75% RH and 50° C.): not chemically stable
Structure (SMILES): Cc1c(CN(C)C(=O)/C=C/c2cnc3c(c2)CCC(=O)N3COP(=O)([O-])[O-])oc2ccccc12.[K+].[K+] [Compound 11]
